“Also recorded” adds a separate entry of the source.
Experiments:
Assay type in all cases: in vivo, rat
osteopontin [1] = experiment: Assay B: osteopontin mRNA by quantitative RT-PCR (Taqman); details: aldosterone/salt-treated rats receiving vehicle
Method: Assay B: In Vivo Aldosterone Infusion Model Determination of osteopontin and COX-2 was performed by quantitative RT-PCR (Taqman). Osteopontin was also identified in the heart by immunohistochemistry.

[2] = Assay B: interstitial collagen volume fraction and hydroxyproline concentration (myocardial fibrosis); details: aldosterone/salt-treated uni-nephrectomized Sprague Dawley rats, 4 weeks
Method: Assay B: In Vivo Aldosterone Infusion Model Hearts were stained with hematoxylin&eosin and the collagen specific dye picro-sirius red and were analyzed for determination of interstitial collagen volume fraction and morphologic abnormalities (i.e. necrosis, vascular injury). Hydroxyproline concentration was measured in the frozen hearts.

[3] = system: Transforming growth factor beta 1 (TGFβ1); experiment: Assay C: TGFβ1 mRNA, TaqMan; details: aldosterone+salt, 7, 14, 30 days
Method: The procedure of Assay B was expanded upon in a further study. […] Myocardial tissue from animals in each treatment group was examined after 7, 14, or 30 days of treatment.
Potassium chloride supplementation was added to the saline solution in order to prevent the potential hypokalemia associated with aldosterone excess.
Treatment At the time of the surgery, an Alzet 2002 osmotic minipump (Alza Corp., Palo Alto, Calif.) containing either vehicle (9% ethanol/87% propylene glycol/4% dH2O) or 1.0 mg/mL d-aldosterone (Sigma Chemical, St. Louis, Mo.) was inserted subcutaneously at the nape of the neck. Aldosterone was administered at a dose of 0.75 µg/hour. […]
The fluorogenic 5′-nuclease assay (TaqMan PCR) using Applied Biosystems' 7700 Sequence Detection System (Applied Biosystems, Foster City, Calif.) allowed for real time detection/quantitation of a specific gene by monitoring the increase in fluorescence of a gene-specific, dye-labeled oligonucleotide probe. […] When the probe was annealed to the target gene, fluorescence of 6FAM was prevented by the close proximity of TAMRA. The exonuclease activity of Taq polymerase released the dyes from the oligonucleotide probe by displacing the probe from the target sequence resulting in fluorescence excitation in direct proportion to the amount of target message present. […]

[4] = Assay A: angiotensin II infusion model, urinary Na+/K+ ratio (natriuresis index); details: Wistar rats, 1% NaCl, angiotensin II 25 ng/min sc; eplerenone 100 mpk
Source text: Electrolyte excretion. The ratio between daily urinary Na^+ excretion and urinary K^+ excretion (U Na^+/K^+ ratio) was used as an index for natriuresis. Urinary Na^+/K^+ ratio was similar in all groups before the start of the treatments, and increased similarly in all animals upon initiation of the high salt diet.

[5] = Survival and cerebral injury in stroke-prone spontaneously hypertensive rats
osteopontin [6] = experiment: Assay B: serum osteopontin levels at 28 days; details: NaCl 1% drinking rats with aldosterone and eplerenone

SMILES	Upregulation of osteopontin mRNA vs control (osteopontin [1]) [fold]	Myocardial fibrosis (interstitial collagen volume fraction, hydroxyproline concentration) [2]	TGF-β mRNA levels [3]	Urinary Na+/K+ ratio (index for natriuresis) [4]	Survival ([5]; stroke-prone spontaneously hypertensive rats (FIG. 37))	Cerebral injury ([5]; stroke-prone spontaneously hypertensive rats (FIGS. 37, 38))	Circulating (serum) osteopontin levels (osteopontin [6])
C[C@]12CCC(=O)C=C1CC[C@@H]1[C@@H]2[C@@H](O)C[C@]2(C=O)[C@@H](C(=O)CO)CC[C@@H]12 [aldosterone]	7	absence of myocardial fibrosis	not upregulated at any of the time points examined				
COC(=O)[C@@H]1CC2=CC(=O)CC[C@]2(C)[C@@]23O[C@@H]2C[C@@]2(C)[C@@H](CC[C@@]24CCC(=O)O4)[C@H]13 [eplerenone]				did not produce a significant diuretic or natriuretic effect	increased survival	reduced cerebral injury; also recorded: decrease in cerebral injury	marked decrease in circulating osteopontin levels

From US20040037806A1, “Aldosterone blocker therapy to prevent or treat inflammation-related disorders” (Pharmacia Corporation, priority 2002, published 2004)
